From patent US7700624B2, “3-aminocyclopentanecrboxamides as modulators of chemokine receptors” (Incyte Corporation, priority 2005, dated 2010)

Target: T1, CCR2 (Homo sapiens, UniProt P41597)
T1 construct: Peripheral Blood Mononuclear Cells (PBMCs) prepared from normal human whole blood via density gradient centrifugation; endogenous in cells; host or cells: human PBMCs from normal whole blood
T1 sequence (P41597 1-360 isoform P41597-2): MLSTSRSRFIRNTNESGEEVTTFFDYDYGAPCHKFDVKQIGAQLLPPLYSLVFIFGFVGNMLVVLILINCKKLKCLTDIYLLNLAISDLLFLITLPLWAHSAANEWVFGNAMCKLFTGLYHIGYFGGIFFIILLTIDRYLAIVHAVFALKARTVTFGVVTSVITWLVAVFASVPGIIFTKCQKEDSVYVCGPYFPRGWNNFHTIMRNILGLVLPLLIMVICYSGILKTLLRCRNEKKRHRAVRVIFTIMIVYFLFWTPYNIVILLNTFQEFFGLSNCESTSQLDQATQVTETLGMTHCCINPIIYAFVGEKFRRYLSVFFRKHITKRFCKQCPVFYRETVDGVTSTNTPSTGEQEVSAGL
Experiment: CCR2 binding assay: 125I-labeled MCP-1 binding to human PBMCs
Conditions: inhibition of specific binding of 0.1 to 0.2 nM 125I-labeled MCP-1 to human PBMCs, 30 min at room temperature
From the text: The CCR2 antagonist activity of compounds of the invention can be reported as the inhibitor concentration required for 50% inhibition (IC50 values) of specific binding in receptor binding assays using ^125I-labeled MCP-1, as ligand, and Peripheral Blood Mononuclear Cells (PBMCs) prepared from normal human whole blood via density gradient centrifugation. Specific binding is preferably defined as the total binding (e.g., total cpm on filters) minus the non-specific binding. Non-specific binding is defined as the amount of cpm still detected in the presence of excess unlabeled competitor (e.g., MCP-1).
Human PBMCs are used to test compounds of the invention in a binding assay. For example, 200,000 to 500,000 cells are incubated with 0.1 to 0.2 nM ^125I-labeled MCP-1, with or without unlabeled competitor (10 nM MCP-1) or various concentrations of compounds to be tested. ^125I-labeled MCP-1, are prepared by suitable methods or purchased from commercial vendors (Perkin Elmer, Boston Mass.). The binding reactions are performed in 50 to 250 μL of a binding buffer consisting of […] pH 7.2, and 0.1% BSA (bovine serum albumin), for 30 min at room temperature. The binding reactions are terminated by harvesting the membranes by rapid filtration through glass fiber filters (Perkin Elmer) which is presoaked in 0.3% polyethyleneimine or Phosphate Buffered Saline (PBS). The filters were rinsed with approximately 600 μL of binding buffer containing 0.5 M NaCl or PBS, then dried, and the amount of bound radioactivity is determined by counting on a Gamma Counter (Perkin Elmer).

Row | SMILES | IC50 [nM]
1 | CCCNC(=O)CCC1CCCC1N[C@@H]1CC[C@@](C(=O)N2CCN(c3cc(C(F)(F)F)ccn3)CC2)(C(C)C)C1 (stereo partly drawn) [Example 17, 3-(2-{[(1R,3S)-3-isopropyl-3-({4-[4-(trifluoromethyl)pyridin-2-yl]piperazin-1-yl}carbonyl)cyclopentyl]amino}cyclopentyl)-N-propylpropanamide] | 190
2 | COc1cc(CN[C@@H]2CC[C@@](C(=O)N3CCN(c4cc(C(F)(F)F)ccn4)CC3)(C(C)C)C2)ccc1C [Example 31, (1R,3S)-3-isopropyl-N-(3-methoxy-4-methylbenzyl)-3-({4-[4-(trifluoromethyl)pyridin-2-yl]piperazin-1-yl}carbonyl)cyclopentanamine] | 334
3 | CC(C)[C@]1(C(=O)N2CCN(c3cc(C(F)(F)F)ccn3)CC2)CC[C@@H](N(C)C2CCOC2)C1 (stereo partly drawn) [Example 24, N-[(1R,3S)-3-isopropyl-3-({4-[4-(trifluoromethyl)pyridin-2-yl]piperazin-1-yl}carbonyl)cyclopentyl]—N-methyltetrahydrofuran-3-amine] | 181
